These results are taken from patent US10550105B2 (Ribon Therapeutics Inc., priority 2018, dated 2020).

The structures appear in SMILES notation. A value given as a limit tells only on which side of the number the result lay.

For this assay, the target named is PARP7 (Homo sapiens (Human), UniProt Q7Z3E1). In words: Enzymatic assay for inhibition of PARP7: TR-FRET displacement of biotinylated Probe A from the TIPARP active site. The assay is classed as binding. The note with it: Table A-1. The essentials: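 Titrated compounds compete with the biotinylated probe; after an additional 30 min incubation at 25° C, time-delayed fluorescence (90 μs) is measured. Inhibition curves use a Hill coefficient that normally floats but may be held at 1.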
PARP7, sequence (Q7Z3E1 whole entry): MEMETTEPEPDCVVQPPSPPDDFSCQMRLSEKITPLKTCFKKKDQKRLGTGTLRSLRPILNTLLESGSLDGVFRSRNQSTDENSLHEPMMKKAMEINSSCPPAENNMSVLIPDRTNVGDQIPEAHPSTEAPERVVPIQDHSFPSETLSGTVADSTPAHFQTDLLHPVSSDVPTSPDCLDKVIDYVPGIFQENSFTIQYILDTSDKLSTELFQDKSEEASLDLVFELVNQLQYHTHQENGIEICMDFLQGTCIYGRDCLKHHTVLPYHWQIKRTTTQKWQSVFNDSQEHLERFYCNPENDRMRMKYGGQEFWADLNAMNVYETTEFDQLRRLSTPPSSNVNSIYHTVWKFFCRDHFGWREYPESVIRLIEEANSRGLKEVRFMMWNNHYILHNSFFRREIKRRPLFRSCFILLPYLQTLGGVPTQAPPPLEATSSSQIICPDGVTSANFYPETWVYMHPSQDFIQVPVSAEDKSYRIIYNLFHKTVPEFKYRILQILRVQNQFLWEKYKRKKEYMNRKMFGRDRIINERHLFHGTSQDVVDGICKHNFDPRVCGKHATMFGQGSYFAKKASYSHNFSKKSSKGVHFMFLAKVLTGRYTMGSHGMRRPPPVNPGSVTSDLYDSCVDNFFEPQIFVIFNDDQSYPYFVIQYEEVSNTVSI
In general terms: In TR-FRET formats the signal depends on donor and acceptor labels being close together.
One may read the IC50 as the point on the concentration scale where inhibition reaches its midpoint. Molecule `O=C(C[C@H]1CC[C@@H](COc2cn[nH]c(=O)c2Cl)O1)N1CCN(c2ncc(C(F)(F)F)cn2)CC1` [Example 575 Isomer C, 4-Chloro-5-(((2S,5R)-5-(2-oxo-2-(4-(5-(trifluoromethyl)pyrimidin-2-yl)piperazin-1-yl)ethyl)-tetrahydrofuran-2-yl)methoxy)pyridazin-3(2H)-one] yielded an IC50 of 100 to 1000 nM.
`O=C(C[C@@H]1CC[C@H](COc2cn[nH]c(=O)c2Cl)O1)N1CCN(c2ncc(C(F)(F)F)cn2)CC1` [Example 575 Isomer D, 4-Chloro-5-(((2R,5S)-5-(2-oxo-2-(4-(5-(trifluoromethyl)pyrimidin-2-yl)piperazin-1-yl)ethyl)-tetrahydrofuran-2-yl)methoxy)pyridazin-3(2H)-one] displayed an IC50 of no less than 1000 nM.
The same measure for `C[C@@H](COc1cn[nH]c(=O)c1Cl)OCCC(=O)N1CCN(c2ncc(C(F)(F)F)cn2)CC1` [Example 578 Isomer B, (S)-4-Chloro-5-(2-(3-oxo-3-(4-(5-(trifluoromethyl)pyrimidin-2-yl)piperazin-1-yl)propoxy)propoxy)pyridazin-3(2H)-one]: less than 100 nM.
The same measure for `C[C@@H](COCCC(=O)N1CCN(c2ncc(C#N)cn2)CC1)Oc1cn[nH]c(=O)c1C(F)(F)F` [Example 579, 2-(4-[3-[(2S)-2-[[6-Oxo-5-(trifluoromethyl)-1,6-dihydropyridazin-4-yl]oxy]propoxy]propanoyl]piperazin-1-yl)pyrimidine-5-carbonitrile]: less than 100 nM; for `N#Cc1ccc(N2CCN(C(=O)C[C@H]3CC[C@@H](COc4cn[nH]c(=O)c4C(F)(F)F)O3)CC2)nc1` [Example 580 Isomer C, 6-(4-[2-[(2R,5S)-5-([[6-oxo-5-(trifluoromethyl)-1,6-dihydropyridazin-4-yl]oxy]methyl)oxolan-2-yl]acetyl]piperazin-1-yl)pyridine-3-carbonitrile]: less than 100 nM; for `N#Cc1ccc(N2CCN(C(=O)C[C@@H]3CC[C@H](COc4cn[nH]c(=O)c4C(F)(F)F)O3)CC2)nc1` [Example 580 Isomer D, 6-(4-[2-[(2S,5R)-5-([[6-oxo-5-(trifluoromethyl)-1,6-dihydropyridazin-4-yl]oxy]methyl)oxolan-2-yl]acetyl]piperazin-1-yl)pyridine-3-carbonitrile]: less than 100 nM.
Molecule `N#Cc1ccc(N2CCN(C(=O)C[C@H]3CC[C@H](CNc4cn[nH]c(=O)c4C(F)(F)F)O3)CC2)nc1` [Example 581 Isomer C, 6-(4-[2-[(2R,5R)-5-([[6-oxo-5-(trifluoromethyl)-1,6-dihydropyridazin-4-yl]amino]methyl)oxolan-2-yl]acetyl]piperazin-1-yl)pyridine-3-carbonitrile] had an IC50 of less than 100 nM.
On to `N#Cc1ccc(N2CCN(C(=O)C[C@@H]3CC[C@H](CNc4cn[nH]c(=O)c4C(F)(F)F)O3)CC2)nc1` [Example 581 Isomer D, 6-(4-[2-[(2S,5R)-5-([[6-oxo-5-(trifluoromethyl)-1,6-dihydropyridazin-4-yl]amino]methyl)oxolan-2-yl]acetyl]piperazin-1-yl)pyridine-3-carbonitrile], for which the IC50 is less than 100 nM.
Regarding `N#Cc1ccc(N2CCN(C(=O)C[C@H]3CC[C@@H](COc4cn[nH]c(=O)c4Cl)O3)CC2)nc1` [Example 582 Isomer C, 6-(4-[2-[(2R,5S)-5-[[(5-Chloro-6-oxo-1,6-dihydropyridazin-4-yl)oxy]methyl]oxolan-2-yl]acetyl]piperazin-1-yl)pyridine-3-carbonitrile], the IC50 is no less than 1000 nM.
For the molecule `N#Cc1ccc(N2CCN(C(=O)C[C@@H]3CC[C@H](COc4cn[nH]c(=O)c4Cl)O3)CC2)nc1` [Example 582 Isomer D, 6-(4-[2-[(2S,5R)-5-[[(5-Chloro-6-oxo-1,6-dihydropyridazin-4-yl)oxy]methyl]oxolan-2-yl]acetyl]piperazin-1-yl)pyridine-3-carbonitrile], the IC50 is no less than 1000 nM.
